Experimental findings from ChEMBL document CHEMBL1201862, “PubChem BioAssay data set” (2004) are described below.

Assay in all cases: NCI tumour cell line growth inhibition, 48 h
The subject of test [1] is MCF7.
Test [2] has as its system CCRF-CEM.
The subject of test [3] is SK-OV-3.
Test [4] deals with ACHN.
Test [5] has as its system BT-549.
For test [6], the system named is SNB-75.
Test [7] has as its system SK-MEL-5.
The test system of test [8] is HCT-15.
The test system of test [9] is NCI-H522.
Test [10] deals with T47D.
For test [11], the system named is K562.
Test [12] has as its system HCT-116.
The subject of test [13] is COLO 205.
The subject of test [14] is EKVX.
Test [15] concerns MOLT-4.
Test [16] has as its system NCI-H23.
Test [17] relates to PC-3.
For test [18], the system named is SF-295.
Test [19] has as its system MDA-MB-435.
In test [20] the test system is RPMI-8226.

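Five compound concentrations were applied to cells in 96-well plates for 48 hours; endpoints were derived by simple linear interpolation of the resulting dose-response curve. GI50 = concentration required for 50% inhibition of growth.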 The source made the active and inactive calls. Rule as the data show it: active = GI50 up to about 1.1 µM and inactive = higher.

`C/C(=N\c1ccc(N(C)C)cc1)c1ccccc1`: the GI50 is 21.9 µM (inactive) in [1]; 17.7 µM (inactive) in test [2]; > 100 µM (inactive) in test [3]; 26.2 µM (inactive) in test [4]; 18.9 µM (inactive) in test [5]; 22.8 µM (inactive) in test [6]. In addition, the GI50 was 15.9 µM (inactive) in [7]; 18.5 µM in test [8]; 16.7 µM (inactive) in [9]; 21.7 µM (inactive) in test [10]; 21.3 µM (inactive) in [11]; 16.9 µM (inactive) in test [12]. Also, the GI50 was 17.8 µM (inactive) in [13]; 72.3 µM (inactive) in [14]; 23.9 µM (inactive) in [15]; 21.1 µM (inactive) in test [16]; 23.4 µM (inactive) in [17]; 31.9 µM (inactive) in [18].
Take `CCOC(=O)c1ccc(NCC#CCN2CCOCC2)cc1`: the GI50 was 66.4 µM (inactive) in test [1]; 60.1 µM (inactive) in test [2]; > 100 µM (inactive) in [3]; 46 µM (inactive) in test [4]; > 100 µM (inactive) in test [19]; > 100 µM (inactive) in test [5]. The GI50 was 26.9 µM (inactive) in [7]; 62.4 µM in test [8]; > 100 µM (inactive) in test [10]; 38.6 µM (inactive) in test [11]; 53 µM (inactive) in test [12]; 38 µM (inactive) in [13]. Besides, the GI50 in test [14] is 57.9 µM (inactive); in test [15], > 100 µM (inactive); in test [20], > 100 µM (inactive); in test [16] it was > 100 µM (inactive); in test [17] it was > 100 µM (inactive).
With `COc1cc(/C=C2/Oc3c(OC)cccc3C2=O)ccc1O`, the GI50 in test [1] was > 100 µM (inactive); in [2] it was 60.1 µM (inactive); in test [3], 92 µM (inactive); in [4] it was 63.7 µM (inactive); in [19], 52.5 µM (inactive); in [5], > 100 µM (inactive). The GI50 is 41.8 µM (inactive) in [6]; 34.8 µM (inactive) in test [7]; 24.3 µM in [8]; 24.7 µM (inactive) in test [9]; > 100 µM (inactive) in test [11]; 76.9 µM (inactive) in test [12]. Besides, the GI50 in [13] is 45.8 µM (inactive); in [14], 46.9 µM (inactive); in test [15] it was 50.4 µM (inactive); in test [20], 53.2 µM (inactive); in test [16] it was > 100 µM (inactive); in [17], 43.9 µM (inactive). Moreover, in test [18], the GI50 is 54 µM (inactive).
Turning to `Cc1ccc(S(=O)(=O)Oc2nc3ccccc3nc2OS(=O)(=O)c2ccc(C)cc2)cc1`, the GI50 in [1] is > 100 µM (inactive); in test [2], 31.6 µM (inactive); in test [3], > 100 µM (inactive); in [4], > 100 µM (inactive); in [19], > 100 µM (inactive); in test [5], > 100 µM (inactive). The GI50 is > 100 µM (inactive) in test [6]; 28.5 µM (inactive) in test [7]; more than 100 µM in [8]; 16.9 µM (inactive) in [9]; 32.4 µM (inactive) in test [11]; > 100 µM (inactive) in [12]. The GI50 in test [13] is > 100 µM (inactive); in [14], > 100 µM (inactive); in [15], 71.3 µM (inactive); in [20] it was 40.9 µM (inactive); in test [16], > 100 µM (inactive); in [17] it was > 100 µM (inactive). Further, the GI50 in test [18] was > 100 µM (inactive).
For the compound `OC[C@@H](O)[C@H](O)[C@H](O)[C@@H](O)C1SCCCS1`, the GI50 in [1], in test [3], in test [4], in [19], in [5] and in [6] was > 100 µM (inactive) throughout. Also, the GI50 is > 100 µM (inactive) in test [7]; more than 100 µM in test [8]; > 100 µM (inactive) in test [10]; > 100 µM (inactive) in test [12]; > 100 µM (inactive) in test [13]; > 100 µM (inactive) in test [14]. Further, the GI50 in test [15], in test [20], in test [16], in test [17] and in [18] was > 100 µM (inactive) throughout.
Regarding `O=[N+]([O-])c1ccc2c(c1)Sc1ccccc1N2`, the GI50 in test [1] was 44.6 µM (inactive); in [2] it was 20.7 µM (inactive); in test [4] it was 64.1 µM (inactive); in test [19], 3.72 µM (inactive); in test [5], > 100 µM (inactive); in [6], 26.6 µM (inactive). The GI50 in test [7] is 9.33 µM (inactive); in test [8], 27.6 µM; in test [9], 6.73 µM (inactive); in [11], 5.41 µM (inactive); in test [12], 9.57 µM (inactive); in test [13] it was 32.9 µM (inactive). Also, the GI50 is 11.4 µM (inactive) in test [14]; 6.34 µM (inactive) in [15]; 5.79 µM (inactive) in test [20]; 7.35 µM (inactive) in [16]; 31.9 µM (inactive) in test [17]; > 100 µM (inactive) in test [18].
On to `CN(C)c1ccc(/N=N/c2ccc3[nH]cnc3c2)cc1`, for which the GI50 in [2] was 19.4 µM (inactive); in test [3], > 10 µM (inactive); in test [4] it was 19 µM (inactive); in test [19] it was 19.5 µM (inactive); in test [5], 32.5 µM (inactive); in test [6], 31.6 µM (inactive). The GI50 in test [7] was 30.3 µM (inactive); in test [8] it was 22.1 µM; in [9], 19.3 µM (inactive); in test [10], 29.5 µM (inactive); in test [11], 19.5 µM (inactive); in test [12], 18 µM (inactive). The GI50 in test [13] was 19.3 µM (inactive); in test [14] it was 33.5 µM (inactive); in test [15] it was 21.8 µM (inactive); in [20], 19.5 µM (inactive); in [16], 45.5 µM (inactive); in [17], 33.1 µM (inactive). In test [18], the GI50 is 24.4 µM (inactive).
With `CCc1nc(Cl)c(Cl)c(Cl)n1`, the GI50 in test [1], in test [2], in test [3], in test [4], in test [19] and in [5] was > 100 µM (inactive) in each case. The GI50 in [6] was 0.242 µM (active); in [7] it was > 100 µM (inactive); in [8], more than 100 µM; in [11], > 100 µM (inactive); in [14], > 100 µM (inactive); in [15] it was > 100 µM (inactive). In addition, the GI50 in test [20], in [16], in [17] and in [18] was > 100 µM (inactive) throughout.
With `CNC(=O)N1N[C@H](c2ccccc2)[C@@H]1c1ccccc1.OB(O)O`, the GI50 in test [1] was 24 µM (inactive); in [2], 32.4 µM (inactive); in test [3], 34 µM (inactive); in [4], 36.6 µM (inactive); in test [5] it was 19.3 µM (inactive); in test [6], 15.6 µM (inactive). Moreover, the GI50 in test [7] is 16.3 µM (inactive); in test [8] it was 24.3 µM; in test [11], 22.6 µM (inactive); in [12], 17.9 µM (inactive); in test [13] it was 20 µM (inactive); in test [14], 22.2 µM (inactive). For the same compound, the GI50 in test [15] is 18.7 µM (inactive); in test [16] it was 22.6 µM (inactive); in test [17], 28.1 µM (inactive); in [18], 17.3 µM (inactive).
Take `CC(C(=O)N1C(=O)N(C(=O)C(C)C(O)c2ccccc2)C(c2ccccc2)C1c1ccccc1)C(O)c1ccccc1` (centres undefined): the GI50 is 4.43 µM (inactive) in [1]; 5.56 µM (inactive) in [2]; 6.7 µM (inactive) in [4]; 15 µM (inactive) in test [19]; 12.6 µM (inactive) in test [5]; 3.9 µM (inactive) in [6]. Also, the GI50 in test [7] was > 10 µM (inactive); in [8] it was 15.5 µM; in test [9] it was 7.19 µM (inactive); in test [10] it was 6.47 µM (inactive); in test [11], 4.47 µM (inactive); in test [12], 6.21 µM (inactive). Also, the GI50 is 13.3 µM (inactive) in test [13]; 3.66 µM (inactive) in test [15]; 4.01 µM (inactive) in test [20]; 16.5 µM (inactive) in [16]; 2.84 µM (inactive) in [18].
For the compound `O=C(Cc1ccccc1)NN1C(=O)/C(=C\c2ccccc2)S/C1=N\c1ccccc1`, the GI50 in [1], in [3], in [4], in test [19], in [5] and in test [6] was > 100 µM (inactive) throughout. Moreover, the GI50 in test [7] was > 100 µM (inactive); in [8], more than 100 µM; in test [10] it was > 100 µM (inactive); in test [12], > 100 µM (inactive); in test [13] it was > 100 µM (inactive); in test [14], > 100 µM (inactive). Further, the GI50 in test [15], in test [16] and in test [18] was > 100 µM (inactive) throughout.
Take `C=C1CC2OC2(C(=O)O[C@H]2CCC3[C@@H]4CCC5=CC(=O)CC[C@]5(C)C4CC[C@@]32C)C1=O` (some centres undefined): the GI50 in [2] was 0.804 µM (active); in test [3] it was 20 µM (inactive); in [4], 8.09 µM (inactive); in test [19], 12.7 µM (inactive); in [5], 15.3 µM (inactive); in test [6] it was 16.9 µM (inactive). For the same compound, the GI50 was 11.8 µM (inactive) in test [7]; 3.68 µM in test [8]; 2.47 µM (inactive) in [9]; 3.3 µM (inactive) in [10]; 1.78 µM (inactive) in [11]; 5.81 µM (inactive) in [12]. Further, the GI50 is 4.1 µM (inactive) in [13]; 25.5 µM (inactive) in [14]; 1.49 µM (inactive) in test [15]; 1.47 µM (inactive) in test [20]; 9.53 µM (inactive) in [16]; 19.1 µM (inactive) in [18].
